Active and inactive are the calls of the source. The calls are words filed in the database; no cut-off is given here. Peptide text beside a SMILES is read from it. * marks the point of attachment. X1 = O=C(NCCCN*)c1ccc(-c2n[nH]c3ccccc23)cc1
Experiments:
[1] = molecular target: Mitogen-activated protein kinase 8 (Homo sapiens, UniProt P45983); assay: Inhibition of JNK1 by TR-FRET assay
[2] = molecular target: Mitogen-activated protein kinase 9 (Homo sapiens) (UniProt P45984); assay: Displacement of biotin-labeled pep-JIP1 from GST fused JNK2 upto 200 uM by DELFIA assay
Sequence of Mitogen-activated protein kinase 9 (Homo sapiens) (P45984 whole entry, looked up, the tested form may be a part): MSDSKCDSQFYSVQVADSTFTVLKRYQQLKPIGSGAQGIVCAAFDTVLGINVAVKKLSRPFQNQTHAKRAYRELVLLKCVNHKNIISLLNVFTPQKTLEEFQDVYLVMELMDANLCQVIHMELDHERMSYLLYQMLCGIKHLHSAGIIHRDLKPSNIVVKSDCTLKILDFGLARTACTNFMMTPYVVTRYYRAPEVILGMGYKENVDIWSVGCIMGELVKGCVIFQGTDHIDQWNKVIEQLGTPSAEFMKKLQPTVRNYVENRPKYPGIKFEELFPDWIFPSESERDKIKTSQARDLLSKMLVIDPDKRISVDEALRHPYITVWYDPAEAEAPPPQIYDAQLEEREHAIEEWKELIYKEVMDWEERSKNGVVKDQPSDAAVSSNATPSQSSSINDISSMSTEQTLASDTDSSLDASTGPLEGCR

[3] = molecular target: Mitogen-activated protein kinase 9 (Homo sapiens) (UniProt P45984); assay: Displacement of biotin-labeled pep-JIP1 from GST fused JNK2 by DELFIA assay
[4] = molecular target: Mitogen-activated protein kinase 14 (Homo sapiens) (UniProt Q16539); assay: Inhibition of MAPK p38alpha upto 100 uM
Sequence of Mitogen-activated protein kinase 14 (Homo sapiens) (Q16539 whole entry): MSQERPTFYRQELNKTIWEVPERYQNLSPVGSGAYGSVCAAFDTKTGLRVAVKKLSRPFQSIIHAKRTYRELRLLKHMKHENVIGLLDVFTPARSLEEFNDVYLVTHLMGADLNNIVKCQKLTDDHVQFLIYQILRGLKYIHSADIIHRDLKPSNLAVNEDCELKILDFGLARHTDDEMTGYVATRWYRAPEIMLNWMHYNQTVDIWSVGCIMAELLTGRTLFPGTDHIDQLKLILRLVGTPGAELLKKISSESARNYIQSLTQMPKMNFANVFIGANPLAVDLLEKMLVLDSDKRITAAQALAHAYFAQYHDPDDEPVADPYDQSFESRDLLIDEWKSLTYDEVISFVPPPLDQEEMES

Sequence of Mitogen-activated protein kinase 8 (P45983 whole entry, the tested form may be a part): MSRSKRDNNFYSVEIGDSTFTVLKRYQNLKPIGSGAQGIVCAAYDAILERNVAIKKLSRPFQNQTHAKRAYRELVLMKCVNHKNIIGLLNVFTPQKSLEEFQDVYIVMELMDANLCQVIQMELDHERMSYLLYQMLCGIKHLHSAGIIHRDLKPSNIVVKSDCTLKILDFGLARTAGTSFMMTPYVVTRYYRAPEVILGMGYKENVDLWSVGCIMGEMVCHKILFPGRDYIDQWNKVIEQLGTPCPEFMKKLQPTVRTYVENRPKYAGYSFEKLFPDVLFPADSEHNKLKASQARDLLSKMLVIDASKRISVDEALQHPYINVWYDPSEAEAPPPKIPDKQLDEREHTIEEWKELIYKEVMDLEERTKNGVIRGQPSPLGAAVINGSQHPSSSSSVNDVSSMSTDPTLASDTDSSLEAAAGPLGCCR

Structure (SMILES) | IC50 [1] [nM] | Activity [2] | IC50 [3] [nM] | also measured
O=C(O)CCCNC(=O)c1ccc(-c2n[nH]c3ccccc23)cc1 | 1400 |  |  | 
CC1(C)CC(NC(=O)CCCNC(=O)c2ccc(-c3n[nH]c4ccccc34)cc2)CC(C)(C)N1O | 1200 |  |  | 
CC(=O)N[C@@H](CC(C)C)C(=O)N[C@@H](CC(N)=O)C(=O)N[C@@H](CC(C)C)C(=O)NCC(=O)NCC(=O)O (Ac-LNLGG-OH) |  | inactive |  | 
CC(=O)N[C@@H](CC(C)C)C(=O)N[C@@H](CC(N)=O)C(=O)N[C@@H](CC(C)C)C(=O)NCC(=O)NCC(=O)NCCCNC(=O)c1ccc(-c2n[nH]c3ccccc23)cc1 (Ac-LNLGG-X1) | 295 |  | 20 | Activity [4]: inactive
CC(=O)N[C@@H](CC(C)C)C(=O)N[C@@H](CC(N)=O)C(=O)N[C@@H](CC(C)C)C(=O)O (Ac-Leu-Asn-Leu-OH) |  | inactive |  | 
CC(=O)N[C@@H](CCCNC(=N)N)C(=O)N1CCC[C@H]1C(=O)N[C@H](C(=O)N[C@H](C(=O)N[C@@H](CC(C)C)C(=O)N[C@@H](CC(N)=O)C(=O)N[C@@H](CC(C)C)C(=O)O)[C@@H](C)O)[C@@H](C)O (Ac-RPTTLNL-OH) |  |  | 53000 | 
